Test results reported in article PMC12066977, “Alkyl Tail Variation on Chalcone‐Based Quaternary Pyridinium Salts as Rule‐of‐Thumb for Antimicrobial Activity” (Archiv Der Pharmazie, 2025).
Where two headings read alike, the source gives them in different places.

Legend:
C. albicans ATCC 10231 [1] = test: Broth microdilution antimicrobial assay (MIC, IC50); type: cell-based; conditions: Candida albicans, 24 h; for MIC: ATCC10231, broth microdilution, 37°C
Description: (§1) Reference strains of Staphylococcus aureus (ATCC 25923), Escherichia coli (ATCC 25922), and Candida albicans (ATCC 10231) were used in this study as microbial models. These strains were purchased from the American Type Culture Collection (ATCC); bacterial cultures were routinely grown on 5% blood agar plate, while fungal cultures on Sabouraud Dextrose Agar (Biolife […]., Milan, Italy). […] In short, microbial inocula were prepared at 0.5 McFarland in PBS and, subsequently, bacterial suspensions were diluted 1:200 in Mueller-Hinton broth (Sigma-Aldrich, St. Louis, MO, USA), while fungal inoculum was diluted 1:20 in RPMI-1640 medium (Gibco®, ThermoFisher Scientific Inc., Waltham, MA, USA), containing glucose 2%, 0.3% levo-glutamine buffered to pH 7.0 with 0.165 M 3-(N-morpholino) propanesulfonic acid (MOPS). A total of 100 μL of these microbial suspensions was introduced into a 96-well microplate and incubated with 100 μL of the compounds, two-fold serially diluted in the range of 100-0.19 μM. Positive controls (microbial suspensions in regular media), negative controls (only compounds), and solvent controls (microbial suspensions incubated with DMSO dilutions) were included in the tests. The plate was incubated at 37°C for 24 h, and subsequently the optical density at 630 nm (OD630nm) was spectrophotometrically measured. Experiments were carried out in triplicate in three biological replicates. […] Statistical analysis was carried out by using GraphPad Prism version 9.4.1 for Windows (GraphPad Software, San Diego, California USA, www.graphpad.com). ^a MIC (Minimum Inhibitory Concentration) were determined in vitro by means of a standardized microdilution assay, in compliance with the Clinical and laboratory Standard Institute (CLSI) guidelines (30). Microbial suspensions were prepared at 0.5 McFarland in PBS, then diluted in the media and transferred in a 96 micro-well plate together with the serially 2-fold dilutions of the compounds. After 24h of incubation at 37°C, microbial growths were evaluated by measuring the Optical Density at 600 nm, then percentage values were obtained as relative to the positive controls (microbial suspensions in regular media).

S. aureus ATCC 25923 = test: as above; type: cell-based; conditions: Staphylococcus aureus; for MIC: ATCC25923, 24 h, broth microdilution, 37°C; for IC50: ATCC25923, 50% growth inhibition, 24 h, read-out: IC50 [95% confidence interval] Staphylococcus aureus
Description: as §1

Vero cells (ATCC CCL-81) = test: Cell viability and proliferation assay (WST8/CCK-8); type: cell-based; conditions: 48 h treatment, CCK-8; read-out: CC50 [95% CI] Vero cells
Description: (§2) Vero cell line (ATCC CCL‐81) was selected as a model system to investigate the overall effect of chalcones on non‐malignant mammalian cells. […] For experiments, cells were seeded into 96‐well plates at 10^4 cells/well and incubated at 37°C for 24 h. Following washes with PBS, the cell monolayer was incubated with 100 µL of medium containing the twofold serial dilutions of the compounds. Both untreated cells and cells incubated with medium containing solvent dilutions were included in each experiment as controls. The cell viability was assessed by a WST8‐based assay according to the manufacturer's instructions (CCK‐8, Cell Counting Kit‐8, Dojindo Molecular Technologies, Rockville, MD, USA). After 48 h of incubation, culture medium was removed from each well, the monolayer was washed with PBS, and 100 µL of fresh medium containing 10 µL of CCK‐8 solution was added. Following a 2 h incubation at 37°C, the OD450nm was read, and data were expressed as the percentage of cell viability relative to the untreated controls. The CC50 was obtained on the corresponding dose–response curves generated as previously reported for IC50 values. Experiments were carried out in triplicate in three biological replicates.

[2] = system: S. aureus ATCC 25923, E. coli ATCC 25922, C. albicans ATCC 10231; test: Broth microdilution antimicrobial assay, statements pooled over the three strains; type: cell-based; conditions: stated for S. aureus, E. coli and C. albicans together; read-out: MIC toward the three selected strains
Description: The antimicrobial activity of the compounds was assessed by determining the Minimum Inhibitory Concentration (MIC) by a well‐established broth microdilution procedure in microtiter plates and in compliance with the Clinical and Laboratory Standards Institute (CLSI) guidelines.
In short, microbial inocula were prepared at 0.5 McFarland in PBS and, subsequently, bacterial suspensions were diluted 1:200 in Mueller–Hinton broth (Sigma‐Aldrich, St. Louis, MO, USA), while fungal inoculum was diluted 1:20 in RPMI‐1640 medium (Gibco®, ThermoFisher Scientific Inc., Waltham, MA, USA), containing glucose 2%, 0.3% levo‐glutamine buffered to pH 7.0 with 0.165 M 3‐(N‐morpholino) propanesulfonic acid (MOPS). A total of 100 µL of these microbial suspensions was introduced into a 96‐well microplate and incubated with 100 µL of the compounds, two‐fold serially diluted in the range of 100–0.19 µM. Positive controls (microbial suspensions in regular media), negative controls (only compounds), and solvent controls (microbial suspensions incubated with DMSO dilutions) were included in the tests. The plate was incubated at 37°C for 24 h, and subsequently the optical density at 630 nm (OD630nm) was spectrophotometrically measured. Experiments were carried out in triplicate in three biological replicates. […]

E. coli ATCC 25922 = test: Broth microdilution antimicrobial assay (MIC, IC50); type: cell-based; conditions: Escherichia coli, 24 h; for MIC: ATCC25922, broth microdilution, 37°C
Description: as §1

C. albicans ATCC 10231 [3] = conditions: lead compound 1, previously reported; read-out: IC50 [95% confidence interval] Candida albicans; cited from earlier work
Leishmania donovani = system: Leishmania donovani; design: method as in PMID 30669643, PMID 29758517; conditions: lead compound 1, previously reported; read-out: IC50 against Leishmania donovani; cited from earlier work
[4] = system: human red blood cells (hRBCs); test: Hemolytic activity assay; type: cell-based; conditions: 25 µM, 90 min, 37°C
Description: The hemolytic activity of some selected compounds was evaluated as the amount of hemoglobin released by the disruption of human red blood cells (hRBCs). For the experiments, fresh hRBCs were collected by centrifugation at 1500g for 10 min, washed three times with PBS, and resuspended to a final concentration of 4% w/v hRBCs in PBS. Then, 100 µL of hRBCs suspension and an equal volume of the twofold dilutions of the antimicrobial peptides were mixed in a 96‐well plate and incubated for 90 min at 37°C. After centrifugation at 1000g for 5 min, the supernatants were transferred into a clear 96‐well plate, and OD405nm was read. Untreated hRBCs (incubated with PBS) and hRBCs incubated with 1% Triton X‐100 were employed as negative and positive controls, respectively. The hemolysis percentage was calculated as [OD405nm (sample) − OD4_05nm (negative control)]/[OD405nm (positive control) − OD405nm (negative control)] × 100. Minimal hemolytic concentrations (MHCs) were defined as the compound concentration causing 10% hemolysis. Three independent experiments were performed in triplicate.

[5] = Cell viability and proliferation assay (WST8/CCK-8); type: cell-based; conditions: African green monkey, Vero cells (ATCC CCL-81), 48 h treatment, CCK-8; read-out: CC50 [95% CI] Vero cells
Description: as §2

S. aureus biofilm = test: Inhibition of biofilm formation (crystal violet staining); type: cell-based; conditions: Staphylococcus aureus, 24 h, CV staining, read-out: inhibition of S. aureus biofilm production
Description: (§3) The ability of some selected compounds to inhibit biofilm formation was assessed by established protocols with minor modifications. In short, exponential cultures of S. aureus, E. coli, and C. albicans grown in Tryptic Soy broth (TSB, Sigma‐Aldrich, St. Louis, MO, USA) were adjusted to a final density of 10^5 CFU/mL. Aliquots of 100 µL of the microbial cultures were transferred to a 96‐well flat‐bottom polystyrene microplate, and then incubated at 37°C for 90 min to promote bacterial adhesion. Thereafter, wells were slowly rinsed with PBS to remove nonattached cells, and 100 µL of TSB supplemented with 1% glucose containing the twofold serial dilutions of the compounds was added. After incubation at 37°C for 24 h, the free‐floating cells were removed, and the biofilms were carefully washed with PBS. The biomass was quantified by a standardized crystal violet (CV) staining. Briefly, 100 µL of CV solution (0.1% in water) was added to each well containing a completely air‐dried biofilm, and incubated for 30 min at 37°C. […] Finally, the colored supernatants were transferred to a new microplate, and the OD550nm was measured. The percentage inhibition of biofilm formation in the different experimental conditions was calculated relative to the biofilm mass formed in the absence of compounds (positive control).

E. coli biofilm = test: as above; type: cell-based; conditions: Escherichia coli, 24 h, CV staining, read-out: inhibition of E. coli biofilm production
Description: as §3

MIC (C. albicans ATCC 10231 [1])	MIC (S. aureus ATCC 25923)	MIC [2]	MIC (E. coli ATCC 25922)	IC50 (S. aureus ATCC 25923)	IC50 (E. coli ATCC 25922; ATCC25922, 50% growth inhibition, read-out: IC50 [95% confidence interval] Escherichia coli)	IC50 (C. albicans ATCC 10231 [1]; ATCC10231, 50% growth inhibition, read-out: IC50 [95% confidence interval] Candida albicans)	Structure (SMILES)	CC50 (Vero cells (ATCC CCL-81))	IC50 (C. albicans ATCC 10231 [3])	IC50 (Leishmania donovani)	hemolytic activity [4]	CC50 at 48 h [5]	inhibition at 25 µM (S. aureus biofilm)	inhibition at 25 µM (E. coli biofilm)
> 100 µM	> 100 µM	≥ 50 µM					C#CCOc1ccc(C(=O)/C=C/c2cccnc2)c(OCC#C)c1 [Compound 9, (E)‐3‐{3‐[2,4‐Bis(prop‐2‐yn‐1‐yloxy)phenyl]‐3‐oxoprop‐1‐en‐1‐yl}pyridin‐1‐ium bromide]	6.2 µM						
			> 100 µM	47.6 µM			C#CCOc1ccc(C(=O)/C=C/c2cccnc2)c(OCC#C)c1 [Compound 1]		43.8 µM	4 µM				
6.25 µM	1.56 µM		6.25 µM	0.84 µM	4.48 µM	4.28 µM	C#CCOc1ccc(C(=O)/C=C/c2ccc[n+](CCCCCCCCCC)c2)c(OCC#C)c1.[Br-] [Compound 4, (E)‐3‐{3‐[2,4‐Bis(prop‐2‐yn‐1‐yloxy)phenyl]‐3‐oxoprop‐1‐en‐1‐yl}‐1‐decylpyridin‐1‐ium bromide]				30.0%	12.8 µM	> 90%	> 90%
